Test results reported in paper PMC7377239, “Cardiovascular Effects of Polychlorinated Biphenyls and Their Major Metabolites” (Environmental Health Perspectives, 2020).
Where two headings read alike, the source gives them in different places.

Tested on: iCell cardiomyocytes (human iPSC-derived cardiomyocytes)
Test: Intracellular Ca2+ flux / beating parameters in iCell cardiomyocytes (FLIPR tetra), 90 min or 24 h
Assay type: cell-based
Details: Homo sapiens, Cardiomyocyte, 0.00 µM = 100.00; for activity at 0.1 µM: 0.10 µM
In short: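 Gelatin-plated iCell cardiomyocytes (5,000/well) were dye-loaded for 2 h at 37 °C, then exposed for 90 min or 24 h to PCBs/metabolites (5× plates at 0.05–500 µM; 0.5% DMSO final) in triplicate. Ca2+ flux was read for 100 s at 8 Hz and 37 °C. Peak height, frequency, spacing CV and decay/rise ratio were vehicle-normalized and fitted with a four-parameter logistic model, with POD set at 1 SD of vehicle.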

[1] = 1.5 h, read-out: cm.amp.avg.90min
[2] = 1.5 h, read-out: cm.amp.cv.90min
[3] = 1.5 h, read-out: cm.decay.rise.90min
[4] = 1.5 h, read-out: cm.spacing.cv.90min
[5] = 24 h, read-out: cm.amp.avg.24hrs
[6] = 24 h, read-out: cm.amp.cv.24hrs
[7] = 24 h, read-out: cm.decay.rise.24hrs
[8] = 24 h, read-out: cm.spacing.cv.24hrs

Q: With `Oc1ccc(-c2cccc(Cl)c2)cc1Cl` [4-OH PCB11] as the compound, how does the activity at 0.01 µM [1] read?
A: The activity at 0.01 µM was 107%.

Q: And the activity at 0.01 µM [2]?
A: The activity at 0.01 µM was 101%.

Q: What about the activity at 0.01 µM (1.5 h, read-out: cm.bpm.90min) of the same compound?
A: Its activity at 0.01 µM is 107%.

Q: What about the activity at 0.01 µM [3] of the same compound?
A: The activity at 0.01 µM was 99.5%.

Q: What about the activity at 0.01 µM [4] of the same compound?
A: The activity at 0.01 µM was 111%.

Q: What about the activity at 0.1 µM [1] of the same compound?
A: Its activity at 0.1 µM is 96%.

Q: What about the activity at 0.1 µM [2] of the same compound?
A: The activity at 0.1 µM was 97.9%.

Q: And the activity at 0.1 µM (1.5 h, read-out: cm.bpm.90min)?
A: Its activity at 0.1 µM is 102%.

Q: And the activity at 0.1 µM [3]?
A: Its activity at 0.1 µM is 94.9%.

Q: What about the activity at 0.1 µM [4] of the same compound?
A: The activity at 0.1 µM was 90.9%.

Q: What about the activity at 1 µM [1] of the same compound?
A: Its activity at 1 µM is 103%.

Q: What about the activity at 1 µM [2] of the same compound?
A: Its activity at 1 µM is 91.8%.

Q: What about the activity at 1 µM (1.5 h, read-out: cm.bpm.90min) of the same compound?
A: The activity at 1 µM was 99.1%.

Q: What about the activity at 1 µM [3] of the same compound?
A: The activity at 1 µM was 96.5%.

Q: And the activity at 1 µM [4]?
A: Its activity at 1 µM is 95.9%.

Q: What about the activity at 10 µM [1] of the same compound?
A: The activity at 10 µM was 89.2%.

Q: What about the activity at 10 µM [2] of the same compound?
A: Its activity at 10 µM is 99%.

Q: And the activity at 10 µM (1.5 h, read-out: cm.bpm.90min)?
A: The activity at 10 µM was 104%.

Q: And the activity at 10 µM [3]?
A: The activity at 10 µM was 94.9%.

Q: And the activity at 10 µM [4]?
A: Its activity at 10 µM is 104%.

Q: And the activity at 100 µM [1]?
A: Its activity at 100 µM is 0%.

Q: And the activity at 100 µM [2]?
A: Its activity at 100 µM is 0%.

Q: And the activity at 100 µM (1.5 h, read-out: cm.bpm.90min)?
A: Its activity at 100 µM is 0%.

Q: And the activity at 100 µM [3]?
A: The activity at 100 µM was 0%.

Q: What about the activity at 100 µM [4] of the same compound?
A: Its activity at 100 µM is 0%.

Q: What about the activity at 0.01 µM [5] of the same compound?
A: The activity at 0.01 µM was 93.8%.

Q: What about the activity at 0.01 µM [6] of the same compound?
A: The activity at 0.01 µM was 28.6%.

Q: What about the activity at 0.01 µM (24 h, read-out: cm.bpm.24hrs) of the same compound?
A: Its activity at 0.01 µM is 46.8%.

Q: And the activity at 0.01 µM [7]?
A: Its activity at 0.01 µM is 48.9%.

Q: And the activity at 0.01 µM [8]?
A: Its activity at 0.01 µM is 46.2%.

Q: What about the activity at 0.1 µM [5] of the same compound?
A: Its activity at 0.1 µM is 110%.

Q: What about the activity at 0.1 µM [6] of the same compound?
A: The activity at 0.1 µM was 104%.

Q: What about the activity at 0.1 µM (24 h, read-out: cm.bpm.24hrs) of the same compound?
A: Its activity at 0.1 µM is 92.6%.

Q: And the activity at 0.1 µM [7]?
A: The activity at 0.1 µM was 109%.

Q: What about the activity at 0.1 µM [8] of the same compound?
A: The activity at 0.1 µM was 104%.

Q: What about the activity at 1 µM [5] of the same compound?
A: Its activity at 1 µM is 92.2%.

Q: And the activity at 1 µM [6]?
A: The activity at 1 µM was 98.4%.

Q: What about the activity at 1 µM (24 h, read-out: cm.bpm.24hrs) of the same compound?
A: Its activity at 1 µM is 89.7%.

Q: And the activity at 1 µM [7]?
A: Its activity at 1 µM is 99.3%.

Q: What about the activity at 1 µM [8] of the same compound?
A: Its activity at 1 µM is 89.5%.

Q: And the activity at 10 µM [5]?
A: Its activity at 10 µM is 135%.

Q: And the activity at 10 µM [6]?
A: Its activity at 10 µM is 67.1%.

Q: What about the activity at 10 µM (24 h, read-out: cm.bpm.24hrs) of the same compound?
A: Its activity at 10 µM is 93.6%.

Q: And the activity at 10 µM [7]?
A: Its activity at 10 µM is 106%.

Q: What about the activity at 10 µM [8] of the same compound?
A: Its activity at 10 µM is 91.5%.

Q: What about the activity at 100 µM [5] of the same compound?
A: Its activity at 100 µM is 0%.

Q: What about the activity at 100 µM [6] of the same compound?
A: The activity at 100 µM was 0%.

Q: And the activity at 100 µM (24 h, read-out: cm.bpm.24hrs)?
A: Its activity at 100 µM is 0%.

Q: And the activity at 100 µM [7]?
A: Its activity at 100 µM is 0%.

Q: And the activity at 100 µM [8]?
A: The activity at 100 µM was 0%.
